Data as given in BindingDB's records for doi:10.1021/jm990277d (Warner-Lambert, 2000).

Assay: Inhibition of [3H]- pentazocine binding against guinea pig brain Sigma opioid receptor type 1

For `O=C1COc2cc(CN3CCN(c4ccc(Cl)cc4)CC3)ccc2N1` [7-[4-(4-Chloro-phenyl)-piperazin-1-ylmethyl]-4H-benzo[1,4]oxazin-3-one], the IC50 was 285 nM.
